Measurements as given in patent US10800754B2, “Heterocyclic amide compound” (TAKEDA PHARMACEUTICAL COMPANY LIMITED, priority 2016, dated 2020).

Experiments:
[1] = molecular target: T1, human PRS protein (Homo sapiens, UniProt P07814); test: PRS inhibitory activity (ATP/[32P]pyrophosphate exchange enzyme reaction); format: biochemical; conditions: 300 nM test compound; recombinant human PRS (EPRS 998-1512); read-out: inhibitory rate (%) of PRS
T1 construct: to construct His-Avi-hEPRS (998-1512) expression plasmid; His tag (N); Avi tag (N); TEV cleavage site (ENLYFQ/GS, encoded by forward primer hEPRS-TEV-NheF) (N); made in house; host or cells: E. coli BL21(DE3)
T1 sequence (P07814 998-1512): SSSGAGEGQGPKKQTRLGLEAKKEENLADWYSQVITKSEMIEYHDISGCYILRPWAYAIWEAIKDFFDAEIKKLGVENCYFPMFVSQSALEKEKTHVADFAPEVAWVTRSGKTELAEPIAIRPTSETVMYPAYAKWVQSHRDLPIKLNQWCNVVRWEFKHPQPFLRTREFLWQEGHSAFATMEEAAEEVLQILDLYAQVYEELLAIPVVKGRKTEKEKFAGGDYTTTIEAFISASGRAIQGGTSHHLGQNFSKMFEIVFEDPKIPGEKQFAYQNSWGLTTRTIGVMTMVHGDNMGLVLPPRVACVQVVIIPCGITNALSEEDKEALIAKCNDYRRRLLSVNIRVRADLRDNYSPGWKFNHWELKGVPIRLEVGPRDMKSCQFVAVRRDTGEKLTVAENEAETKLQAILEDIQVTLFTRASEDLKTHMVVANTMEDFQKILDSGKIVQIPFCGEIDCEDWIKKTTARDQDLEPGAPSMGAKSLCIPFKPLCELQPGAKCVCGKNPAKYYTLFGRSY
Procedure, shortened: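 His-Avi-tagged human EPRS catalytic domain (998-1512), E. coli-expressed, was preincubated 60 min with compound (enzyme added as 40 nM solution) in Tris pH 7.5, KCl, DTT, Tween 20 and MgCl2. The substrate solution contained 300 μM ATP, 160 μM L-proline, and 400 μM pyrophosphate with [32P]pyrophosphate; reaction ran 30 min at room temperature. Charcoal-captured label was counted, with enzyme-free wells taken as 100% inhibition.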

[2] = tested on: human ovarian cancer cell A2780; test: proliferation inhibitory activity against A2780 cells (CellTiter-Glo); format: cell-based; conditions: A2780, 72 h, 1 μM test compound, 3 days of culture, read-out: proliferation inhibitory rate (%) of A2780 cells
Protocol: The proliferation inhibitory activity of the compound of the present invention against human ovarian cancer cell A2780 was evaluated by the following method.
Human ovarian cancer cells A2780 were seeded in a 384 well culture plate at 1000 cells in 30 μL of medium per well by using RPMI-1640 medium (Wako Pure Chemical Industries, Ltd.) containing 10% fetal bovine serum and penicillin/streptomycin. The next day, 10 μL of RPMI-1640 medium containing the test compound was added to the cells. After 3 days of culture, 20 μL of CellTiter-Glo Luminescent Cell Viability Assay solution (Promega, Fitchburg, Wis., US) was added. The luminescence signal was measured using EnVision (PerkinElmer, Waltham, Mass., US) and the inhibitory rate (%) of the test compound was calculated with a well free of seeding of cell as 100% inhibition.

SMILES	inhibition at 0.3 µM [1]	inhibition at 1 µM [2]
Cn1ccc(-c2cccc(CC(=O)Nc3cc(N4CC[C@@](C#N)(C5CC5)C4=O)ccn3)c2)cc1=O [Example 51, N-(4-((3S)-3-cyano-3-cyclopropyl-2-oxopyrrolidin-1-yl)pyridin-2-yl)-2-(3-(1-methyl-2-oxo-1,2-dihydropyridin-4-yl)phenyl)acetamide]	99%	52%
N#C[C@@]1(C2CC2)CCN(c2ccnc(NC(=O)Cc3cccc(-c4cn[nH]c4)c3)c2)C1=O [Example 56, N-(4-((3S)-3-cyano-3-cyclopropyl-2-oxopyrrolidin-1-yl)pyridin-2-yl)-2-(3-(1H-pyrazol-4-yl)phenyl)acetamide]	98%	64%
Cc1cc(N2CC[C@@](C#N)(C3CC3)C2=O)cc(NC(=O)Cc2cc(F)cc(-c3cn(C)nn3)c2)n1 [Example 57, N-(4-((3S)-3-cyano-3-cyclopropyl-2-oxopyrrolidin-1-yl)-6-methylpyridin-2-yl)-2-(3-fluoro-5-(1-methyl-1H-1,2,3-triazol-4-yl)phenyl)acetamide]	99%	94%
N#C[C@@]1(C2CC2)CCN(c2ccnc(NC(=O)Cc3cccc(-c4cnn(CC(F)(F)F)c4)c3)c2)C1=O [Example 58, N-(4-((3S)-3-cyano-3-cyclopropyl-2-oxopyrrolidin-1-yl)pyridin-2-yl)-2-(3-(1-(2,2,2-trifluoroethyl)-1H-pyrazol-4-yl)phenyl)acetamide]	99%	75%
Cc1cc(N2CC[C@@](C#N)(C3CC3)C2=O)cc(NC(=O)Cc2cc(-c3cnn(C)c3)cc(C(F)(F)F)c2)n1 [Example 59, N-(4-((3S)-3-cyano-3-cyclopropyl-2-oxopyrrolidin-1-yl)-6-methylpyridin-2-yl)-2-(3-(1-methyl-1H-pyrazol-4-yl)-5-(trifluoromethyl)-phenyl)acetamide]	93%	51%
Cc1cc(N2CC[C@@](C#N)(C3CC3)C2=O)cc(NC(=O)Cc2cc(F)cc(-c3ccc(=O)n(C)c3)c2)n1 [Example 60, N-(4-((3S)-3-cyano-3-cyclopropyl-2-oxopyrrolidin-1-yl)-6-methylpyridin-2-yl)-2-(3-fluoro-5-(1-methyl-6-oxo-1,6-dihydropyridin-3-yl)phenyl)acetamide]	99%	97%
Cn1cc(-c2cccc(CC(=O)Nc3cc(N4CC[C@@](C#N)(C5CC5)C4=O)cc(F)n3)c2)cn1 [Example 63, N-(4-((3S)-3-cyano-3-cyclopropyl-2-oxopyrrolidin-1-yl)-6-fluoropyridin-2-yl)-2-(3-(1-methyl-1H-pyrazol-4-yl)phenyl)acetamide]	99%	88%
N#C[C@@]1(C2CC2)CCN(c2ccnc(NC(=O)Cc3cccc(-c4cnn(CC5CC5)c4)c3)c2)C1=O [Example 64, N-(4-((3S)-3-cyano-3-cyclopropyl-2-oxopyrrolidin-1-yl)pyridin-2-yl)-2-(3-(1-(cyclopropylmethyl)-1H-pyrazol-4-yl)phenyl)acetamide]	99%	79%
CC(C)Cn1cc(-c2cccc(CC(=O)Nc3cc(N4CC[C@@](C#N)(C5CC5)C4=O)ccn3)c2)cn1 [Example 68, N-(4-((3S)-3-cyano-3-cyclopropyl-2-oxopyrrolidin-1-yl)pyridin-2-yl)-2-(3-(1-isobutyl-1H-pyrazol-4-yl)phenyl)acetamide]	98%	51%
N#CCCCn1cc(-c2cccc(CC(=O)Nc3cc(N4CC[C@@](C#N)(C5CC5)C4=O)ccn3)c2)cn1 [Example 71, N-(4-((3S)-3-cyano-3-cyclopropyl-2-oxopyrrolidin-1-yl)pyridin-2-yl)-2-(3-(1-(3-cyanopropyl)-1H-pyrazol-4-yl)phenyl)acetamide]	99%	69%
N#C[C@@]1(C2CC2)CCN(c2ccnc(NC(=O)Cc3cccc(-c4cnn(CC5CCC5)c4)c3)c2)C1=O [Example 72, N-(4-((3S)-3-cyano-3-cyclopropyl-2-oxopyrrolidin-1-yl)pyridin-2-yl)-2-(3-(1-(cyclobutylmethyl)-1H-pyrazol-4-yl)phenyl)acetamide]	98%	65%

The next lines start with results.

inhibition at 0.3 µM [1]	SMILES	inhibition at 1 µM [2]
100%	Cc1cc(-c2cccc(CC(=O)Nc3cc(N4CC[C@@](C#N)(C5CC5)C4=O)ccn3)c2)sn1 [Example 48, N-(4-((3S)-3-cyano-3-cyclopropyl-2-oxopyrrolidin-1-yl)pyridin-2-yl)-2-(3-(3-methyl-1,2-thiazol-5-yl)phenyl)acetamide]	61%
99%	N#C[C@@]1(C2CC2)CCN(c2ccnc(NC(=O)Cc3cccc(-c4cnsc4)c3)c2)C1=O [Example 50, N-(4-((3S)-3-cyano-3-cyclopropyl-2-oxopyrrolidin-1-yl)pyridin-2-yl)-2-(3-(1,2-thiazol-4-yl)phenyl)acetamide]	78%
99%	Cc1cc(N2CC[C@@](C#N)(C3CC3)C2=O)cc(NC(=O)Cc2cc(F)cc(-c3cnn(C)c3)c2)n1 [Example 52, N-(4-((3S)-3-cyano-3-cyclopropyl-2-oxopyrrolidin-1-yl)-6-methylpyridin-2-yl)-2-(3-fluoro-5-(1-methyl-1H-pyrazol-4-yl)phenyl)acetamide]	97%
100%	Cn1cc(-c2ccc(F)c(CC(=O)Nc3cc(N4CC[C@@](C#N)(C5CC5)C4=O)ccn3)c2)cn1 [Example 53, N-(4-((3S)-3-cyano-3-cyclopropyl-2-oxopyrrolidin-1-yl)pyridin-2-yl)-2-(2-fluoro-5-(1-methyl-1H-pyrazol-4-yl)phenyl)acetamide]	82%
99%	CC(C)(C)OC(=O)n1cc(-c2cccc(CC(=O)Nc3cc(N4CC[C@@](C#N)(C5CC5)C4=O)ccn3)c2)cn1 [Example 55, tert-butyl 4-(3-(2-((4-((3S)-3-cyano-3-cyclopropyl-2-oxopyrrolidin-1-yl)pyridin-2-yl)amino)-2-oxoethyl)phenyl)-1H-pyrazole-1-carboxylate]	67%
95%	Cn1cc(-c2cccc(CC(=O)Nc3cc(N4CC[C@@](C#N)(C5CC5)C4=O)cc(C(F)F)n3)c2)cn1 [Example 65, N-(4-((3S)-3-cyano-3-cyclopropyl-2-oxopyrrolidin-1-yl)-6-(difluoromethyl)pyridin-2-yl)-2-(3-(1-methyl-1H-pyrazol-4-yl)phenyl)acetamide]	75%
99%	N#C[C@@]1(C2CC2)CCN(c2ccnc(NC(=O)Cc3cccc(-c4cnn(C5CCCC5)c4)c3)c2)C1=O [Example 66, N-(4-((3S)-3-cyano-3-cyclopropyl-2-oxopyrrolidin-1-yl)pyridin-2-yl)-2-(3-(1-cyclopentyl-1H-pyrazol-4-yl)phenyl)acetamide]	80%
100%	N#C[C@@]1(C2CC2)CCN(c2ccnc(NC(=O)Cc3cccc(-c4cnn(CCO)c4)c3)c2)C1=O [Example 67, N-(4-((3S)-3-cyano-3-cyclopropyl-2-oxopyrrolidin-1-yl)pyridin-2-yl)-2-(3-(1-(2-hydroxyethyl)-1H-pyrazol-4-yl)phenyl)acetamide]	77%
99%	COCCn1cc(-c2cccc(CC(=O)Nc3cc(N4CC[C@@](C#N)(C5CC5)C4=O)ccn3)c2)cn1 [Example 70, N-(4-((3S)-3-cyano-3-cyclopropyl-2-oxopyrrolidin-1-yl)pyridin-2-yl)-2-(3-(1-(2-methoxyethyl)-1H-pyrazol-4-yl)phenyl)acetamide]	58%
98%	COCCCn1cc(-c2cccc(CC(=O)Nc3cc(N4CC[C@@](C#N)(C5CC5)C4=O)ccn3)c2)cn1 [Example 74, N-(4-((3S)-3-cyano-3-cyclopropyl-2-oxopyrrolidin-1-yl)pyridin-2-yl)-2-(3-(1-(3-methoxypropyl)-1H-pyrazol-4-yl)phenyl)acetamide]	62%
